ChEMBL document CHEMBL1121775, “Synthesis and antimalarial effects of N2-aryl-N4-[(dialkylamino)alkyl]- and N4-aryl-N2-[(dialkylamino)alkyl]-2,4-quinazolinediamines” (J Med Chem, 1981)
Several values for one entry are separate records, joined by “and”; a condition that tells them apart may be missing. Equal values may be shown once.

Key:
[1] = system: Plasmodium berghei; test: Antimalarial effect against trophozoite-induced Plasmodium berghei in mice (Mus musculus) after 20 mg/kg subcutaneous dose; assay type: functional
[2] = system: Plasmodium berghei; test: Antimalarial effect against trophozoite-induced Plasmodium berghei in mice (Mus musculus) at 320 mg/kg subcutaneous dose; assay type: functional
[3] = system: Plasmodium berghei; test: Antimalarial effect against trophozoite-induced Plasmodium berghei in mice (Mus musculus) at 80 mg/kg subcutaneous dose; assay type: functional
[4] = system: Plasmodium berghei; test: Antimalarial effect against trophozoite-induced Plasmodium berghei in mice (Mus musculus) at 160 mg/kg subcutaneous dose; assay type: functional
[5] = system: Plasmodium berghei; test: Antimalarial activity against trophozoite-induced Plasmodium berghei in mice (Mus musculus); assay type: functional
[6] = system: Plasmodium berghei; test: Antimalarial effect against trophozoite-induced Plasmodium berghei in mice (Mus musculus) after 40 mg/kg subcutaneous dose; assay type: functional
[7] = system: Plasmodium berghei; test: (§1) Antimalarial effect against trophozoite-induced Plasmodium berghei in mice (Mus musculus) at 640 mg/kg subcutaneous dose; assay type: functional
[8] = The ratio of SD90 of the quinine hydrochloride, to the SD90 of the test substance for the Dose of 97 mg/kg/day; assay type: functional
[9] = The ratio of SD90 of the quinine hydrochloride, to the SD90 of the test substance for the Dose of 47 mg/kg; assay type: functional
[10] = system: Mus musculus; test: Number of toxic deaths at a dose of 640 mg/kg; assay type: toxicity, organism-based; set-up: dose 640 mg/kg; conditions: in vivo
[11] = system: Mus musculus; test: Number of mice cured at a subcutaneous dose of 160 mg/kg.; assay type: functional
[12] = system: Mus musculus; test: Number of mice cured at a subcutaneous dose of 320 mg/kg.; assay type: functional
[13] = system: Mus musculus; test: Number of mice cured at a dose of 640 mg/kg sc; assay type: functional; conditions: route subcutaneous
[14] = The ratio of SD90 of the quinine hydrochloride, to the SD90 of the test substance for the Dose of 35 mg/kg; assay type: functional
[15] = system: Mus musculus; test: Number of toxic deaths at a dose of 320 mg/kg; assay type: toxicity, organism-based; set-up: dose 320 mg/kg; conditions: in vivo
[16] = system: Plasmodium berghei; test: Antimalarial activity against trophozoite-induced Plasmodium berghei in mice (Mus musculus) at 160 mg/kg subcutaneous dose; assay type: functional
[17] = system: Mus musculus; test: Antimalarial effect against trophozoite-induced Plasmodium berghei in mice (Mus musculus) at dosage of 320 mg/kg after subcutaneous administration;; assay type: functional
[18] = system: Mus musculus; test: Number of mice cured at a dose 160 mg/kg sc; assay type: functional; conditions: route subcutaneous
[19] = The ratio of SD90 of the quinine hydrochloride, to the SD90 of the test substance for the Dose of 82 mg/kg; assay type: functional
[20] = The ratio of SD90 of the quinine hydrochloride, to the SD90 of the test substance for the Dose of 18.5 mg/kg; assay type: functional
[21] = system: Mus musculus; test: No of toxic deaths at dose of 640 mg/kg; assay type: ADME, organism-based; set-up: dose 640 mg/kg; conditions: in vivo
[22] = system: Mus musculus; test: Antimalarial effect against trophozoite induced Plasmodium berghei in mice (Mus musculus) at dosage of 160 mg/kg after subcutaneous administration; No. of mice (Mus musculus) surviving after 60 days 1; assay type: functional
[23] = The ratio of SD90 of the quinine hydrochloride, to the SD90 of the test substance for the Dose of 91 […]; assay type: functional
[24] = system: Mus musculus; test: Antimalarial effect against trophozoite-induced Plasmodium berghei in mice (Mus musculus) at dosage of 640 mg/kg after subcutaneous administration; No. of mice (Mus musculus) surviving after 60 days 4; assay type: functional
[25] = system: Plasmodium berghei; test: as §1; assay type: functional; remark: listed apart in the source
[26] = system: Mus musculus; test: Antimalarial effect against trophozoite-induced Plasmodium berghei in mice (Mus musculus) at dosage of 320 mg/kg after subcutaneous administration; No. of mice (Mus musculus) surviving after 60 days 2; assay type: functional
[27] = The ratio of SD90 of the quinine hydrochloride, to the SD90 of the test substance for the Dose of mg/kg; assay type: functional

Clc1cccc(Nc2nc(NCCN3CCCC3)c3ccccc3n2)c1
MST [1]: 0.4 days
MST [2]: 4.2 days
MST [3]: 1.4 days
MST ([4]; 160 mg/kg): 2.8 days and 3.5 days
SD90 [5]: 97 mg/kg/day
MST ([6]; 40 mg/kg): 0.6 days and 0.7 days
MST ([7]; 640 mg/kg): 10.2 days and 11.1 days
Ratio [8]: 0.8

CSc1ccc(Nc2nc(NCCCN3CCCC3)c3ccccc3n2)cc1
Ratio [9]: 1.6
No. of toxic deaths [10]: 5
MST [4]: 6.8 days
SD90 [5]: 47 mg/kg/day
MST [6]: 1 days

CCN(CC)CCNc1nc(Nc2ccc(Cl)cc2)nc2ccccc12
No. of survivals [11]: 2
No. of survivals [12]: 3
MST [1]: 1.6 days
No. of survivals [13]: 5
MST [3]: 6.2 days
MST [4]: 11.1 days
SD90 [5]: 35 mg/kg/day
Ratio [14]: 2.1
MST ([6]; 40 mg/kg): 4.1 days and 4.6 days
No. of toxic deaths [15]: 2

CCN(CC)C1CCC(Nc2nc(Nc3ccc(I)cc3)c3ccccc3n2)CC1 (centres undefined)
No. of survivals [12]: 2
MST [16]: 8.6 days
MST [1]: 0.3 days
No. of survivals ([13]; 640 mg/kg): 3 and 2
MST [2]: 9.9 days
MST ([3]; 80 mg/kg): 0.7 days and 0.5 days
MST [4]: 14.4 days
MST [17]: 9.4 days
MST [6]: 0.5 days
No. of survivals [18]: 2

CCN(CC)CCNc1nc(Nc2ccc(Cl)c(Cl)c2)nc2cc(NCc3ccc(Cl)c(Cl)c3)ccc12
MST ([1]; 20 mg/kg): 0.1 days and 0.2 days and 0.3 days
MST ([2]; 320 mg/kg): 1.7 days and 2 days and 2.5 days
MST ([3]; 80 mg/kg): 0.3 days and 0.6 days
MST ([4]; 160 mg/kg): 1.3 days and 1 days and 0.7 days
SD90 [5]: 82 mg/kg/day
MST ([6]; 40 mg/kg): 0.1 days and 0.2 days and 0.3 days
MST [7]: 8.9 days
Ratio [19]: 0.9

CN1CCCC1CCNc1nc(Nc2ccc(Cl)c(Cl)c2)nc2ccc(Cl)cc12 (centres undefined)
No. of survivals [12]: 2
MST [1]: 0.5 days
MST [2]: 14.2 days
MST [3]: 2.7 days
MST ([4]; 160 mg/kg): 6.1 days and 2.5 days
SD90 [5]: 18.5 mg/kg/day
Ratio [20]: 4
MST ([6]; 40 mg/kg): 1.1 days and 0.5 days
MST [7]: 13.6 days

CC1(C)N=C(N)N=C(N)N1c1ccc(Cl)cc1 [CYCLOGUANIL]
No. of toxic deaths [10]: 5
MST ([1]; 20 mg/kg): 7.9 days and 8.1 days
MST ([3]; 80 mg/kg): 21.6 days and 21.9 days
MST [6]: 13.4 days
No. of toxic deaths [21]: 5

CCN(CC)CCNc1nc(Nc2ccc(Cl)c(Cl)c2)c2ccccc2n1
MST [1]: 0.2 days
MST [2]: 3.2 days
MST [3]: 0.2 days
MST [4]: 0.9 days
MST [22]: 0.2 days
MST ([7]; 640 mg/kg): 10.3 days and 5.4 days and 5.9 days

Brc1cccc(Nc2nc(NCCN3CCCC3)c3ccccc3n2)c1
MST [1]: 0.2 days
MST [2]: 5 days
MST [3]: 0.4 days
MST ([4]; 160 mg/kg): 4.4 days and 4 days
SD90 [5]: 91 mg/kg/day
Ratio [23]: 0.8
MST ([7]; 640 mg/kg): 8.4 days and 8.1 days

CCN(CC)C1CCC(Nc2nc(Nc3ccc(Cl)c(Cl)c3)nc3ccc(Cl)cc23)CC1 (centres undefined)
No. of survivals [11]: 1
No. of survivals [12]: 2
MST [16]: 12.9 days
MST [1]: 1.3 days
No. of survivals ([13]; 640 mg/kg): 4 and 3
MST [3]: 14.9 days
MST [24]: 12.9 days
MST [22]: 13.9 days
MST ([6]; 40 mg/kg): 13.3 days and 12.9 days
MST [25]: 18.4 days
MST [26]: 27.2 days

CCN(CC)CCNc1nc(Nc2ccc(Cl)c(Cl)c2)nc2cc(N)ccc12
No. of survivals [12]: 3
MST ([1]; 20 mg/kg): 0.6 days and 0.9 days
No. of survivals [13]: 4
MST ([2]; 320 mg/kg): 16.8 days and 16.9 days
MST ([3]; 80 mg/kg): 6 days and 6.3 days
MST ([4]; 160 mg/kg): 13.2 days and 13.5 days
SD90 [5]: 30.5 mg/kg/day
Ratio [27]: 30.5
MST ([6]; 40 mg/kg): 3.2 days and 3.5 days
MST [25]: 29.8 days
